Results from patent US12521375B2, “Pharmaceutical composition for treating fatty liver disease” (Shionogi & Co., Ltd., priority 2020, dated 2026).

Assays:
[1] = target: recombinant human ACC2 (Homo sapiens (Human), UniProt O00763); assay: Measurement of inhibitory activity of human ACC2; format: biochemical; conditions: read-out: IC50 hACC2
Description: A cDNA encoding human ACC2 protein (27 amino acid residues to 2458 amino acid residues from the N-terminus) was cloned from a human kidney cDNA library (Clontech Laboratories, Inc.), a His-tag sequence was introduced at the 5′ end, and then inserted into pFastBac1 (Invitrogen). A recombinant baculovirus was produced in accordance with the protocol for a Bac-to-Bac baculovirus expression system (Invitrogen), and Sf-9 cells were infected therewith to express human ACC2 protein. The recovered cells were crushed, filtered through a filter, and then subjected to Ni affinity chromatography and anion exchange chromatography. Fractions containing human ACC2 protein were collected to obtain recombinant human ACC2.
The recombinant human ACC1 and the recombinant human ACC2 obtained from the above Preparation Examples were preincubated in an assay buffer (50 mM HEPES-KOH (pH 7.4), 10 mM magnesium chloride, 6 to 10 mM potassium citrate, 4 mM reduced glutathione, and 1.5 mg/ml bovine serum albumin) for 1 hour. […] After incubation, the enzymatic reaction was stopped by addition of EDTA, and then the compound was co-crystallized with an α-cyano-4-hydroxy cinnamic acid (CHCA) matrix on a MALDI target plate, and measurement was performed in a reflector negative mode using a matrix-assisted laser desorption ionization-time-of-flight mass spectrometer (MALDI-TOF MS). Deprotonated ions of the substrate acetyl-CoA (AcCoA) and the reaction product malonyl-CoA (MalCoA) were detected, and the intensity of each signal was used to calculate a conversion rate to malonyl-CoA […], i.e., intensity of [MalCoA-H]-/(intensity of [MalCoA-H]-+intensity of [AcCoA-H]-). […] The potassium citrate concentration in the assay buffer, the potassium bicarbonate concentration in the substrate solution, and the incubation time were adjusted within the above concentrations or reaction times for each lot of the enzyme to be used.

[2] = Tissue distribution test; format: in vivo, Crl:CD (SD) rats; conditions: rats, intravenous 0.5 mg/kg, 30 minutes after administration
Protocol: To 8-week-old male Crl:CD (SD) rats, the compound of the present invention was intravenously administered at a dose of 0.5 mg/mL/kg under non-fasted conditions, and 30 minutes after administration, the rats were killed by exsanguination through whole blood collection from the abdominal aorta under anesthesia. Then, the liver and muscles were removed, and a 25% homogenate was prepared with distilled water. The obtained blood was centrifuged, and plasma was then obtained. Then, control plasma and control tissue homogenate were added to the tissue homogenate sample and the plasma sample, respectively, at 1:1, and each sample was measured using LC/MS/MS. The measured area ratio (tissue/plasma) obtained was used as a tissue Kp value. For compound I-12, the value was 6.10 in the liver and 1.29 in muscles, and for compound I-13, the value was 4.06 in the liver and 0.918 in muscles. Therefore, the compound of the present invention has a property of being distributed in the liver and muscles in vivo.

[3] = system: Malonyl-CoA concentration in organ; assay: Test for evaluating malonyl-CoA concentration in liver and muscles; format: in vivo, BKS.Cg-+Lepr^db/+Lepr^db/Jcl mice; conditions: for Malonyl-CoA concentration in organ with vehicle administration group defined as 100%, Liver / Malonyl-CoA concentration in organ with vehicle administration group defined as 100%, Muscle: 2 hours after administration
Protocol: Eight-week-old male BKS.Cg-+Lepr^db/+Lepr^db/Jcl mice were fasted for 4 hours, then the compound of the present invention was orally administered at a dose of 0.3 to 6 mg/5 mL/kg, and 2 hours after administration, the mice were killed by exsanguination through whole blood collection from the abdominal vena cava under anesthesia. Then, the liver and muscles were removed, and a 9% homogenate was prepared in a homogenizing buffer (distilled water: 60% perchloric acid: 85% phosphoric acid=43:5:2). The malonyl-CoA concentration in the tissue was quantified by LC/MS/MS.

[4] = system: high-fat diet-loaded mice with spontaneous fatty liver; assay: Effect on liver fibrosis progression in high-fat diet-loaded mice with spontaneous fatty liver; format: in vivo, FLS.B6-Lep<ob>/Shi mice; set-up: 3-hydroxybutyric acid in plasma: unit not given here; conditions: for Amount of triglyceride in liver / Sirius red-positive area rate / 3-hydroxybutyric acid in plasma / Plasma triglyceride concentration: bid; for Amount of triglyceride in liver / Sirius red-positive area rate: oral, 4 weeks
Protocol: Eight-week-old male FLS.B6-Lep/Shi mice were fed a high-fat diet (60 kcal % fat content, using shortening, containing 2% cholesterol and 8.7% fructose), and at the same time, the compound of the present invention was suspended in a 0.5% MC aqueous solution so as to have a dose of 5.5 to 60 mg/kg/5 mL, and orally repeatedly administered (b.i.d.) for 4 weeks. Blood was collected from the tail vein during the repeated administration period, and biochemical parameters in plasma were measured. After 4 weeks of administration, blood was collected from the abdominal vena cava under anesthesia, and then the liver was collected. Paraffin-embedded sections prepared from the collected liver were subjected to Sirius red staining. A degree of fibrosis progression in the liver was determined from a Sirius red-positive area rate and evaluated.

[5] = system: Crl:CD (SD) rats; assay: Influence on platelet count; format: in vivo; conditions: for Platelet count: oral, 4 days, SD rats
Protocol: The compound of the present invention was suspended in a 0.5% methylcellulose solution so as to have a dose of 50 to 600 mg/kg/day, and was orally repeatedly administered for 4 days to 6-week-old male Crl:CD (SD) rats under non-fasted conditions. On day 5 from the start of administration, blood was collected from the abdominal vena cava under anesthesia, and […]. A platelet count in plasma was evaluated with an automatic hemocytometer.

Chain of recombinant human ACC2 (O00763 27-2458): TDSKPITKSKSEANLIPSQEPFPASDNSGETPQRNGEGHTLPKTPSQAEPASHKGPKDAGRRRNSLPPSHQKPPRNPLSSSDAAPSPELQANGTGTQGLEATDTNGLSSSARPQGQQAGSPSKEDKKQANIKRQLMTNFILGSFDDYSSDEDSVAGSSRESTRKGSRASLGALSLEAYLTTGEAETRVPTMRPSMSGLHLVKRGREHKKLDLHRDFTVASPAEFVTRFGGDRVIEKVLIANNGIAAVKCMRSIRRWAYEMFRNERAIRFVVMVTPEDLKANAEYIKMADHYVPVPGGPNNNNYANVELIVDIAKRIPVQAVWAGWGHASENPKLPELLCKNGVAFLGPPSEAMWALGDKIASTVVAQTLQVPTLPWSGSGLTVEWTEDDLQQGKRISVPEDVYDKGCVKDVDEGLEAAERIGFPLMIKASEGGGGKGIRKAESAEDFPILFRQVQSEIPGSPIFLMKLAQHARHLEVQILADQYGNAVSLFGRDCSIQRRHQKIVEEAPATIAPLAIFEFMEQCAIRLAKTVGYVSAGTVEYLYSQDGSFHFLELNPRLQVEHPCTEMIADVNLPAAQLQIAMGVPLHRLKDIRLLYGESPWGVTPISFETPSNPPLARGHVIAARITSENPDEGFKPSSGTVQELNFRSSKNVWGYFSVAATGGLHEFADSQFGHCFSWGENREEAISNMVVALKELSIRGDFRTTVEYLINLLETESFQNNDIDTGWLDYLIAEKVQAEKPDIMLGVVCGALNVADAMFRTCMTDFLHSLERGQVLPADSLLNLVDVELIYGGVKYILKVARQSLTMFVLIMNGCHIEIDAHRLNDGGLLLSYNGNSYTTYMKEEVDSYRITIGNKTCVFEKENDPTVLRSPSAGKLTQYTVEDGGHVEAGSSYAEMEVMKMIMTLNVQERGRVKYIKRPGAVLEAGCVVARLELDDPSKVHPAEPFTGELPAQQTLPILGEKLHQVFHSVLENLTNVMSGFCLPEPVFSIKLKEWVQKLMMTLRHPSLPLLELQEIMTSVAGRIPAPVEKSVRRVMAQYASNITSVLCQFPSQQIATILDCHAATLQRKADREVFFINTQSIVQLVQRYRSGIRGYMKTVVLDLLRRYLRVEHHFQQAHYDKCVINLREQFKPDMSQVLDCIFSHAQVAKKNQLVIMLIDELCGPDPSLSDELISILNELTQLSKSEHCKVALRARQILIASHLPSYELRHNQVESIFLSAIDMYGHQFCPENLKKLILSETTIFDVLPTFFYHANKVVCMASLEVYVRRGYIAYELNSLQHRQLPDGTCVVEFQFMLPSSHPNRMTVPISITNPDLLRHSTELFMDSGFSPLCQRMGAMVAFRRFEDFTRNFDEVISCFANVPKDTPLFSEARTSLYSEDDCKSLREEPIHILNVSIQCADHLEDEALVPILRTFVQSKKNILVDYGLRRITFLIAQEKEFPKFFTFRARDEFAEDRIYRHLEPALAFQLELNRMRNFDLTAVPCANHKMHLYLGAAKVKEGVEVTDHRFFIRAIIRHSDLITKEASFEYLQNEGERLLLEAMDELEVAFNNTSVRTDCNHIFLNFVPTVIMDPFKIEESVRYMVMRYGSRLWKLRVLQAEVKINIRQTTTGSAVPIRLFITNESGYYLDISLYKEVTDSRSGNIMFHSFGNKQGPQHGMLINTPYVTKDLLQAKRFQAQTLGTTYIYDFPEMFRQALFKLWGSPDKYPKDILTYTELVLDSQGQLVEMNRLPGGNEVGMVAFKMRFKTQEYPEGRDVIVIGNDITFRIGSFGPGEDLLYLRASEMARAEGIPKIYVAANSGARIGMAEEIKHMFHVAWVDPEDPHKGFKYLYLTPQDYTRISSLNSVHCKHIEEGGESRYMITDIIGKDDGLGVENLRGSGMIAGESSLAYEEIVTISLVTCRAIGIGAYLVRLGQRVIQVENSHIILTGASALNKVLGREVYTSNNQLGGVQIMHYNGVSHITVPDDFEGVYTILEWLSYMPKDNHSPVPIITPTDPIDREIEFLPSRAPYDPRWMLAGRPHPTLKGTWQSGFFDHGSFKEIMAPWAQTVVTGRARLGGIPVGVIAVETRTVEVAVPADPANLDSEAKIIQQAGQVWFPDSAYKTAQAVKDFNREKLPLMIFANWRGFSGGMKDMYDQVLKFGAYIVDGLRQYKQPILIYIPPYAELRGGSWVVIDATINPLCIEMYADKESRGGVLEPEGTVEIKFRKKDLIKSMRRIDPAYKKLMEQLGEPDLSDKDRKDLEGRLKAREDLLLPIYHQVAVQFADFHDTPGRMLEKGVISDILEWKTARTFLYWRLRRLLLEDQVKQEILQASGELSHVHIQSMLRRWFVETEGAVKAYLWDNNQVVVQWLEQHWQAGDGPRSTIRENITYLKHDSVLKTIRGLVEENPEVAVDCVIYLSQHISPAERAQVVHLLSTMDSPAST

Which IC50 [1] does the source give for `C[C@@H](CO[C@H]1CC[C@H](Oc2nc3c(F)cc(OC4CC4)cc3n2C)CC1)NC(N)=O` [Compound I-12] here?
Its IC50 is 5.6 nM.

What about the “tissue Kp value (tissue/plasma), liver” value ([2]; liver) of the same molecule?
Its value is 6.10.

And the “tissue Kp value (tissue/plasma), muscles” value ([2]; muscles)?
Its value is 1.29.

And the “Malonyl-CoA concentration in organ with vehicle administration group defined as 100%, Liver” value (“Malonyl-CoA concentration … as 100%, Liver” for short) ([3]; 0.67 mg/kg oral)?
The value was 92.8%.

What about the “Malonyl-CoA concentration in organ with vehicle administration group defined as 100%, Muscle” value (“Malonyl-CoA concentration … as 100%, Muscle” for short) ([3]; 0.67 mg/kg oral) of the same molecule?
Its value is 70.8%.

What about the “Malonyl-CoA concentration … as 100%, Liver” value ([3]; 2 mg/kg oral) of the same molecule?
Its value is 91.1%.

What about the “Malonyl-CoA concentration … as 100%, Muscle” value ([3]; 2 mg/kg oral) of the same molecule?
Its value is 59.5%.

And the “Malonyl-CoA concentration … as 100%, Liver” value ([3]; 6 mg/kg oral)?
The value was 84.0%.

What about the “Malonyl-CoA concentration … as 100%, Muscle” value ([3]; 6 mg/kg oral) of the same molecule?
The value was 56.4%.

What about the “malonyl-CoA concentrations in the liver and muscles (in words)” value ([3]; 0.3 to 6 mg/kg oral) of the same molecule?
Its value is “reduced malonyl-CoA concentrations in the liver and muscles in a compound dose-dependent manner”.

What about the “Amount of triglyceride in liver” value ([4]; 5.5 mg/kg) of the same molecule?
Its value is 451 ± 17 mg/g tissue.

And the “Sirius red-positive area rate” value ([4]; 5.5 mg/kg)?
The value was 1.26 ± 0.13 %.

What about the “3-hydroxybutyric acid in plasma” value ([4]; 5.5 mg/kg, Week 0) of the same molecule?
The value was 184 ± 20.

And the Plasma triglyceride concentration ([4]; 5.5 mg/kg, Week 0)?
The Plasma triglyceride concentration was 790 ± 95 mg/dL.

And the “3-hydroxybutyric acid in plasma” value ([4]; 5.5 mg/kg, Week 1)?
Its value is 470 ± 93.

And the Plasma triglyceride concentration ([4]; 5.5 mg/kg, Week 1)?
The Plasma triglyceride concentration was 369 ± 32 mg/dL.

What about the “3-hydroxybutyric acid in plasma” value ([4]; 5.5 mg/kg, Week 2) of the same molecule?
Its value is 1108 ± 120.

And the Plasma triglyceride concentration ([4]; 5.5 mg/kg, Week 2)?
Its Plasma triglyceride concentration is 464 ± 30 mg/dL.

And the “3-hydroxybutyric acid in plasma” value ([4]; 5.5 mg/kg, Week 4)?
The value was 1354 ± 170.

What about the Plasma triglyceride concentration ([4]; 5.5 mg/kg, Week 4) of the same molecule?
Its Plasma triglyceride concentration is 513 ± 23 mg/dL.

What about the “Amount of triglyceride in liver” value ([4]; 11 mg/kg) of the same molecule?
The value was 441 ± 11 mg/g tissue.

What about the “Sirius red-positive area rate” value ([4]; 11 mg/kg) of the same molecule?
The value was 1.52 ± 0.18%.

And the “3-hydroxybutyric acid in plasma” value ([4]; 11 mg/kg, Week 0)?
Its value is 178 ± 8.7.

And the Plasma triglyceride concentration ([4]; 11 mg/kg, Week 0)?
Its Plasma triglyceride concentration is 619 ± 76 mg/dL.

And the “3-hydroxybutyric acid in plasma” value ([4]; 11 mg/kg, Week 1)?
Its value is 449 ± 140.

And the Plasma triglyceride concentration ([4]; 11 mg/kg, Week 1)?
The Plasma triglyceride concentration was 382 ± 44 mg/dL.

What about the “3-hydroxybutyric acid in plasma” value ([4]; 11 mg/kg, Week 2) of the same molecule?
Its value is 1314 ± 370.

And the Plasma triglyceride concentration ([4]; 11 mg/kg, Week 2)?
The Plasma triglyceride concentration was 497 ± 39 mg/dL.

What about the “3-hydroxybutyric acid in plasma” value ([4]; 11 mg/kg, Week 4) of the same molecule?
The value was 1508 ± 380.

What about the Plasma triglyceride concentration ([4]; 11 mg/kg, Week 4) of the same molecule?
The Plasma triglyceride concentration was 500 ± 27 mg/dL.

And the “Sirius red-positive area rate vs vehicle administration group (in words)” value ([4]; dose of 5.5 mg/kg)?
Its value is “significantly lower than that of the vehicle administration group”.

And the “amount of triglyceride in the liver vs vehicle administration group (in words)” value ([4]; mouse, in vivo)?
The value was “not significantly different from that in the vehicle administration group”.

And the “concentration of 3-hydroxybutyric acid in plasma vs vehicle administration group (in words)” value ([4]; mouse, in vivo)?
The value was “tended to be higher than that in the vehicle administration group”.

What about the “plasma triglyceride concentration vs vehicle administration group (in words)” value ([4]; mouse, in vivo) of the same molecule?
Its value is “not significantly different from that in the vehicle administration group”.

What about the Platelet count ([5]; 100 mg/kg/day) of the same molecule?
Its Platelet count is 987 ± 86.

And the Platelet count ([5]; 300 mg/kg/day)?
Its Platelet count is 988 ± 43.

And the Platelet count ([5]; 600 mg/kg/day)?
Its Platelet count is 1061 ± 85.

What about the “platelet count in SD rats (in words)” value ([5]; within a dose range used for evaluation (50 to 600 mg/kg/day)) of the same molecule?
Its value is “did not affect the platelet count”.
